Marks after values point to notes of the source that are not given here.
Columns and labels:
[1] = test system: fecal bacteria; experiment: H2 production in fecal incubation system, single digestion-resistant components (Example 1); type: cell-based, human; conditions: final concentration 0.5%; for subjects whose fecal samples showed a sample/control ratio of 10 or higher: 10 subjects; for ratio of the H2 production concentration in sample relative to control: 37° C. for 24 hours
Description: Twenty-three different types of digestion-resistant components (cellulose, isomaltooligosaccharide, lactose, fructooligosaccharide, galactooligosaccharide, cellobiose, xylooligosaccharide, xylitol, sorbitol, erythritol, maltitol, mannitol, pectin, sodium alginate, glucomannan, lignin, chitin, chitosan, resistant starch, resistant dextrin, reduced resistant dextrin, kale, or young barley leaf) were each diluted with phosphate buffered saline (PBS) to adjust the concentration to 2.5% (w/v). Among these components, those which were not completely dissolved were used in a suspended state. The control used was a PBS solution not containing any of these components.
Fecal samples were collected from 10 human healthy adult subjects (7 male, 3 female, average aged 35.8), and were used within 5 hours after defecation.
(§1) Twenty milliliters of an anaerobic dilution solution (a solution prepared by dissolving KH2PO4, Na2HPO4, L-cysteine hydrochloride, Tween 80, and 0.1% Resazurin in a vial, jet-injecting N2 and CO2 (80%, 20%) into the vial, and autoclaving the vial sealed with a butyl rubber stopper) was added to 5 g of each of the collected samples, and the mixture was stirred by vortexing and then centrifuged (at 1000 g for 1 min.) to remove solids such as undigested food debris. 160 μL of each of the fecal suspension supernatants harboring fecal bacteria was dispensed into an Eppendorf tube, and 40 μL of each of the prepared solutions of digestion-resistant components in PBS was added to each of the Eppendorf tubes (final concentrations of digestion-resistant components: 0.5%). The Eppendorf tubes containing a mixture of fecal suspension and digestion-resistant component were placed into vial bottles (40 mm×75 mm, 50 mL) while the lids of the tubes and bottles were left open, and a mixed gas of N2 and CO2 (79.8%, 20.2%) was jet-injected to render the Eppendorf tubes and the bottles anaerobic. The vials were sealed with butyl rubber stoppers and incubated in an incubator (at 37° C. for 24 hours). The experiments were done in duplicate per sample, with each experiment being repeated three times.
(§2) Half a milliliter of the gas in each of the vial bottles was collected in a 1.0 mL gastight syringe (produced by Hamilton Company) and analyzed by TRIlyzer (Taiyo Nippon Sanso Corporation). In this process, when concentration exceeded the detection limit, 1 mL of the sample was injected into a 50 mL vial bottle, diluted 50-fold, and subjected to concentration measurement. Before gas collection, the gas in the vial bottles was stirred five times using the syringe.
The ratio of the H2 production concentration in each of the samples relative to that in the control was calculated, and those sample/control ratios of 10 or higher are shaded in the table (Table 1).

[2] = test system: fecal bacteria; experiment: H2 production in fecal incubation system, single components vs mixture of three (Example 2); type: cell-based, human; conditions: 14 subjects; 0.8% solution of each component in PBS
Experimental: as §1, §2
Each of maltitol, galactooligosaccharide and glucomannan was dissolved in PBS to give a 0.8% solution. Similarly, in order to prepare a mixed solution of the three components, these components were mixed at a concentration of 0.8% each, and dissolved in PBS. The control used was a PBS solution not containing any of these components.
Fecal samples from 14 human healthy adult subjects (11 male, 3 female, average aged 40.9) were used.
Fecal treatment and incubation, and H2 concentration measurement, were performed by the same procedures as in Example 1.

OC[C@@H](O)[C@@H](O)[C@H](O)[C@@H](O)CO [Sorbitol, sorbitol]
subjects whose fecal samples showed a sample/control ratio of 10 or higher [1]: 4 of 10 | ratio of the H2 production concentration in sample relative to control ([1]; Subject No. 1 fecal sample): 31.6* | ratio of the H2 production concentration in sample relative to control ([1]; Subject No. 2 fecal sample): 9.6 | ratio of the H2 production concentration in sample relative to control ([1]; Subject No. 3 fecal sample): 33.0* | ratio of the H2 production concentration in sample relative to control ([1]; Subject No. 4 fecal sample): 54.8* | ratio of the H2 production concentration in sample relative to control ([1]; Subject No. 5 fecal sample): 3.4 | ratio of the H2 production concentration in sample relative to control ([1]; Subject No. 6 fecal sample): 4.2 | ratio of the H2 production concentration in sample relative to control ([1]; Subject No. 7 fecal sample): 68.6* | ratio of the H2 production concentration in sample relative to control ([1]; Subject No. 8 fecal sample): 1.7 | ratio of the H2 production concentration in sample relative to control ([1]; Subject No. 9 fecal sample): 0.1 | ratio of the H2 production concentration in sample relative to control ([1]; Subject No. 10 fecal sample): 4.5

OC[C@@H](O)[C@H](O)[C@@H](O)CO [Xylitol, xylitol]
subjects whose fecal samples showed a sample/control ratio of 10 or higher [1]: 6 of 10 | ratio of the H2 production concentration in sample relative to control ([1]; Subject No. 1 fecal sample): 18.4* | ratio of the H2 production concentration in sample relative to control ([1]; Subject No. 2 fecal sample): 11.1* | ratio of the H2 production concentration in sample relative to control ([1]; Subject No. 3 fecal sample): 40.2* | ratio of the H2 production concentration in sample relative to control ([1]; Subject No. 4 fecal sample): 72.4* | ratio of the H2 production concentration in sample relative to control ([1]; Subject No. 5 fecal sample): 8.8 | ratio of the H2 production concentration in sample relative to control ([1]; Subject No. 6 fecal sample): 3.2 | ratio of the H2 production concentration in sample relative to control ([1]; Subject No. 7 fecal sample): 1.4 | ratio of the H2 production concentration in sample relative to control ([1]; Subject No. 8 fecal sample): 1.9 | ratio of the H2 production concentration in sample relative to control ([1]; Subject No. 9 fecal sample): 12.5* | ratio of the H2 production concentration in sample relative to control ([1]; Subject No. 10 fecal sample): 60.2*

OC[C@@H](O)[C@@H](O[C@H]1O[C@H](CO)[C@@H](O)[C@H](O)[C@H]1O)[C@H](O)[C@@H](O)CO [Maltitol, 4-O-α-D-glucopyranosyl-D-glucitol]
subjects whose fecal samples showed a sample/control H2 production concentration ratio of 2 or higher [2]: 9 of 14 | subjects whose fecal samples showed a sample/control H2 production concentration ratio of 3 or higher [2]: 5 of 14 | subjects whose fecal samples showed a sample/control H2 production concentration ratio of 5 or higher [2]: 2 of 14 | subjects whose fecal samples showed a sample/control ratio of 10 or higher [1]: 6 of 10 | ratio of the H2 production concentration in sample relative to control ([1]; Subject No. 1 fecal sample): 12.5* | ratio of the H2 production concentration in sample relative to control ([1]; Subject No. 2 fecal sample): 7.2 | ratio of the H2 production concentration in sample relative to control ([1]; Subject No. 3 fecal sample): 386.6* | ratio of the H2 production concentration in sample relative to control ([1]; Subject No. 4 fecal sample): 22.1* | ratio of the H2 production concentration in sample relative to control ([1]; Subject No. 5 fecal sample): 2.6 | ratio of the H2 production concentration in sample relative to control ([1]; Subject No. 6 fecal sample): 8.4 | ratio of the H2 production concentration in sample relative to control ([1]; Subject No. 7 fecal sample): 315.5* | ratio of the H2 production concentration in sample relative to control ([1]; Subject No. 8 fecal sample): 0.8 | ratio of the H2 production concentration in sample relative to control ([1]; Subject No. 9 fecal sample): 55.6* | ratio of the H2 production concentration in sample relative to control ([1]; Subject No. 10 fecal sample): 32.3*

OC[C@H]1O[C@@H](O[C@H]2[C@H](O)[C@@H](O)C(O)O[C@@H]2CO)[C@H](O)[C@@H](O)[C@H]1O (stereo partly shown) [Lactose, lactose]
subjects whose fecal samples showed a sample/control ratio of 10 or higher [1]: 4 of 10 | ratio of the H2 production concentration in sample relative to control ([1]; Subject No. 1 fecal sample): 4.9 | ratio of the H2 production concentration in sample relative to control ([1]; Subject No. 2 fecal sample): 9.5 | ratio of the H2 production concentration in sample relative to control ([1]; Subject No. 3 fecal sample): 36.6* | ratio of the H2 production concentration in sample relative to control ([1]; Subject No. 4 fecal sample): 28.7* | ratio of the H2 production concentration in sample relative to control ([1]; Subject No. 5 fecal sample): 22.4* | ratio of the H2 production concentration in sample relative to control ([1]; Subject No. 6 fecal sample): 22.1* | ratio of the H2 production concentration in sample relative to control ([1]; Subject No. 7 fecal sample): 0.5 | ratio of the H2 production concentration in sample relative to control ([1]; Subject No. 8 fecal sample): 0.7 | ratio of the H2 production concentration in sample relative to control ([1]; Subject No. 9 fecal sample): 0.1 | ratio of the H2 production concentration in sample relative to control ([1]; Subject No. 10 fecal sample): 7.1

O=C[C@H](O)[C@@H](O)[C@H](O[C@@H]1O[C@H](CO)[C@@H](O)[C@H](O)[C@H]1O)[C@H](O)CO [Cellobiose, cellobiose]
subjects whose fecal samples showed a sample/control ratio of 10 or higher [1]: 7 of 10 | ratio of the H2 production concentration in sample relative to control ([1]; Subject No. 1 fecal sample): 25.7* | ratio of the H2 production concentration in sample relative to control ([1]; Subject No. 2 fecal sample): 37.0* | ratio of the H2 production concentration in sample relative to control ([1]; Subject No. 3 fecal sample): 67.3* | ratio of the H2 production concentration in sample relative to control ([1]; Subject No. 4 fecal sample): 76.5* | ratio of the H2 production concentration in sample relative to control ([1]; Subject No. 5 fecal sample): 8.1 | ratio of the H2 production concentration in sample relative to control ([1]; Subject No. 6 fecal sample): 52.0* | ratio of the H2 production concentration in sample relative to control ([1]; Subject No. 7 fecal sample): 3.1 | ratio of the H2 production concentration in sample relative to control ([1]; Subject No. 8 fecal sample): 7.5 | ratio of the H2 production concentration in sample relative to control ([1]; Subject No. 9 fecal sample): 46.4* | ratio of the H2 production concentration in sample relative to control ([1]; Subject No. 10 fecal sample): 18.9*

OC[C@@H](O)[C@@H](O)CO [Erythritol, erythritol]
subjects whose fecal samples showed a sample/control ratio of 10 or higher [1]: 2 of 10 | ratio of the H2 production concentration in sample relative to control ([1]; Subject No. 1 fecal sample): 12.7* | ratio of the H2 production concentration in sample relative to control ([1]; Subject No. 2 fecal sample): 27.6* | ratio of the H2 production concentration in sample relative to control ([1]; Subject No. 3 fecal sample): 3.8 | ratio of the H2 production concentration in sample relative to control ([1]; Subject No. 4 fecal sample): 1.5 | ratio of the H2 production concentration in sample relative to control ([1]; Subject No. 5 fecal sample): 7.1 | ratio of the H2 production concentration in sample relative to control ([1]; Subject No. 6 fecal sample): 1.8 | ratio of the H2 production concentration in sample relative to control ([1]; Subject No. 7 fecal sample): 4.0 | ratio of the H2 production concentration in sample relative to control ([1]; Subject No. 8 fecal sample): 1.8 | ratio of the H2 production concentration in sample relative to control ([1]; Subject No. 9 fecal sample): 1.0 | ratio of the H2 production concentration in sample relative to control ([1]; Subject No. 10 fecal sample): 2.1

4′-galactosyllactose [Galactooligosaccharide]
subjects whose fecal samples showed a sample/control H2 production concentration ratio of 2 or higher [2]: 8 of 14 | subjects whose fecal samples showed a sample/control H2 production concentration ratio of 3 or higher [2]: 0 of 14 | subjects whose fecal samples showed a sample/control H2 production concentration ratio of 5 or higher [2]: not in any | subjects whose fecal samples showed a sample/control ratio of 10 or higher [1]: 5 of 10 | ratio of the H2 production concentration in sample relative to control ([1]; Subject No. 1 fecal sample): 5.3 | ratio of the H2 production concentration in sample relative to control ([1]; Subject No. 2 fecal sample): 18.5* | ratio of the H2 production concentration in sample relative to control ([1]; Subject No. 3 fecal sample): 35.8* | ratio of the H2 production concentration in sample relative to control ([1]; Subject No. 4 fecal sample): 16.9* | ratio of the H2 production concentration in sample relative to control ([1]; Subject No. 5 fecal sample): 15.4* | ratio of the H2 production concentration in sample relative to control ([1]; Subject No. 6 fecal sample): 22.1* | ratio of the H2 production concentration in sample relative to control ([1]; Subject No. 7 fecal sample): 0.8 | ratio of the H2 production concentration in sample relative to control ([1]; Subject No. 8 fecal sample): 0.8 | ratio of the H2 production concentration in sample relative to control ([1]; Subject No. 9 fecal sample): 0.1 | ratio of the H2 production concentration in sample relative to control ([1]; Subject No. 10 fecal sample): 5.9

OC[C@@H](O)[C@@H](O)[C@H](O)[C@H](O)CO [Mannitol, mannitol]
subjects whose fecal samples showed a sample/control ratio of 10 or higher [1]: 5 of 10 | ratio of the H2 production concentration in sample relative to control ([1]; Subject No. 1 fecal sample): 2.2 | ratio of the H2 production concentration in sample relative to control ([1]; Subject No. 2 fecal sample): 28.2* | ratio of the H2 production concentration in sample relative to control ([1]; Subject No. 3 fecal sample): 234.7* | ratio of the H2 production concentration in sample relative to control ([1]; Subject No. 4 fecal sample): 81.9* | ratio of the H2 production concentration in sample relative to control ([1]; Subject No. 5 fecal sample): 6.6 | ratio of the H2 production concentration in sample relative to control ([1]; Subject No. 6 fecal sample): 76.2* | ratio of the H2 production concentration in sample relative to control ([1]; Subject No. 7 fecal sample): 54.3* | ratio of the H2 production concentration in sample relative to control ([1]; Subject No. 8 fecal sample): 1.7 | ratio of the H2 production concentration in sample relative to control ([1]; Subject No. 9 fecal sample): 0.0 | ratio of the H2 production concentration in sample relative to control ([1]; Subject No. 10 fecal sample): 3.5

Source: patent US20190126075A1, “FOOD AND DRINK PRODUCT CONTAINING POORLY DIGESTIBLE COMPOUND AND COLONIC-HYDROGEN-GAS PRODUCING AGENT” (Kyodo Milk Industry Co., Ltd., priority 2015, published 2019)
